Measured values: patent US20100048534A1, “CRYSTALLINE LESTAURTINIB HYDRATES AND CRYSTALLINE LESTAURTINIB HEMIHYDRATE HEMIACETONITRILEATE AND CRYSTALLINE LESTAURTINIB HEMIHYDRATE HEMITETRAHYDROFURANATE” (priority 2005, published 2010)

Test: Solid-state stability and moisture sorption versus relative humidity (dynamic moisture sorption gravimetry, DMSG)
Assay type: physicochemical

Question: Which “water content of solid-state phase by DMSG” value (25° C., between 0% and 5% RH, w/w) does the source give for `C[C@]12O[C@H](C[C@]1(O)CO)n1c3ccccc3c3c4c(c5c6ccccc6n2c5c31)CNC4=O` [Crystalline lestaurtinib anhydrate, lestaurtinib anhydrate] here?
Answer: less than 0.5%

Question: And the “behaviour above 5% RH” value (ambient temperature, above 5% RH)?
Answer: absorbs moisture above 5% RH to form crystalline lestaurtinib monohydrate
